Test results published in patent publication US20100240040A1, “METHOD FOR SCREENING FOR SELECTIVE MODULATOR OF THE NF-KB PATHWAY ACTIVATION” (INSTITUT PASTEUR, priority 2007, published 2010).
Where a SMILES comes first, the peptide text is derived from it.

What was measured:
[1] = target: T1, spCC2-LZ (MOD of NEMO) (Mus musculus, UniProt O88522); test: Fluorescence anisotropy binding of labelled peptide to spCC2-LZ; settings: labelled peptide 10 μM, increasing spCC2-LZ; read-out: dissociation constant for spCC2-LZ
T1 construct: spCC2-LZ, synthetic polypeptide subdomain CC2-LZ; made in house; host or cells: chemical synthesis
Method: Anisotropy measurements were performed with a QuantaMaster® fluorometer (PTI), equipped with polarizing filters for excitation and emission, and using a photomultiplier tube in the L-configuration. All experiments were carried out in a microcuvette (60 μl) at 22° C., with excitation and emission wavelengths at 495 and 513 nm. The band pass of the excitation and emission wavelengths was 2 and 4 nm, respectively. Steady-state fluorescence anisotropy, expressed as millianisotropy units was measured as described Agou et al., 2004a. All measurements were carried out in a 20 mM isoionic buffer pH 8 (10 mM acetic acide, 10 mM MES, 20 mM Tris), containing 20 mM KCl. Each data point is the result of 20 recording taken over a 2-min period. To analyse whether DR NLM binds the MOD of NEMO, fluorescent labelled BA-DR NLM (10 μM) was incubated with an increasing concentrations of spCC2-LZ and the complex formation was monitored by fluorescence polarization (P) and results are expressed as anisotropy (A) according to the formula A=2P/(3-P). The concentration of spCC2-LZ was determining by amino acid analysis (Vinolo et al; 2006). Data points were fitted to the binding isotherm equation which gives a dissociation constant of 17 μM.

[2] = test system: NF-AT pathway; test: NF-AT-luc reporter assay in Jurkat cells stimulated with PMA and ionomycin; type: cell-based, human; settings: 5 μM peptide, T-lymphocytes
Method: (§1) Jurkat T cells (clone 20) were transiently transfected by a DEAE-dextran method with a reporter plasmid containing the luciferase under the control of a promoter inducible by the ERK and p38 pathway (SRE-luc; Courtois et al., 1997, Mol. Cell. Biol, 17:1441-1449), the NF-AT pathway or the API pathway (respectively NF-AT-luc and AP1-luc; Northrop et al., 1993, J. Biol. […]., 268:2917-2923). Briefly, cells were washed and resuspended at 10^7 cells/ml in TBS containing 0.5 mg/ml of DEAE-dextran (Pharmacia). 1 μg per 2·10^6 cells of reporter plasmid was added. After 45 min at room temperature, the cells were diluted with 10 volumes of TBS, centrifuged, and resuspended at 10^6 cells/ml in 10% FCS-RPMI. After 24 h, cells were incubated with or without 5 μM NEMO-derived peptides (BA-NLM or BA-DR NLM) for 2 h. They were stimulated or mock-stimulated with 100 ng/ml PMA and 1 μg/ml ionomycin for 5 h, and finally lysed in luciferase buffer (25 mM Tris-phosphate pH 7.8 containing 8 mM MgCl2, 1 mM DTE, 1% Triton X100, 15% glycerol). Luciferase measurement was carried out in a Berthold Luminometer.

[3] = test system: NF-κB pathway; test: NF-κB inhibition assay (β-galactosidase reporter) in 70Z/3-C3 cells; type: cell-based; settings: pre-B 70Z3 lymphocytes activated with PMA, IL-1 or LPS; similar for the stimuli; read-out: IC50 of inhibition of the NF-kB pathway
Method: 4.5×10^5 70Z/3-C3 cells in 450 μl of 10% FCS-RPMI (Invitrogen) were incubated with 0-20 μM peptide BA-DR NLM or BA-NLM. After 2 h at 37° C., 200 μl of cell samples were transferred in duplicate to a 96-well micro titer plate. One well was treated for 4 h with either 15 μg/ml LPS, 20 ng/ml IL1-β or 100 ng/ml PMA. A control well was left untreated. After 4 h at 37° C., cells were centrifuged at 400×g for 5 min at room temperature, the pellets were washed three times with cold PBS (200 μl), and the cells were lysed in 100 μl of lysis buffer (25 mM tris-phosphate buffer at pH7.8 containing 8 mM MgCl2, 1 mM dithioerythreitol, 1% Triton X-100, 15% glycerol and a protease inhibitor mixture (Roche Applied Science, ref. 1836145)). The lysate was centrifuged at 1000×g for 20 min at 4° C., and supernatant was kept on ice before performing the β-galactosidase assay. β-galactosidase assays were performed on 50 μl of the supernatant and in an assay mix containing 4 μl of Galacton-star chemiluminescent substrate and 196 μl of reaction buffer (Clonetech). The activity was measured with a plate luminometer (Berthold).

[4] = target: T2, Lys63-linked polyubiquitin chains (Homo sapiens, UniProt P0CG47); test: In vitro binding assay by fluorescence polarization to polyubiquitin chains; settings: tag-free peptide
T2 construct: the Lys63-linked polyubiquitin chains; purchased Boston Biochem

[5] = test system: ERK and p38 pathway; test: SRE-luc reporter assay in Jurkat cells stimulated with PMA and ionomycin; type: cell-based, human; settings: 5 μM peptide, T-lymphocytes
Method: as §1

[6] = test system: AP1 pathway; test: AP1-luc reporter assay in Jurkat cells stimulated with PMA and ionomycin; type: cell-based, human; settings: 5 μM peptide, T-lymphocytes
Method: as §1

[7] = target: T3, CC2-LZ interaction with cellular polyubiquitinylated proteins (Mus musculus, UniProt O88522); test: Pull-down of polyubiquitinylated proteins from JM4.5.2 extracts with biotinylated CC2-LZ, anti-ubiquitin Western blot; type: biochemical; settings: 20 μM peptide, extracts of TNF-α stimulated JM4.5.2 cells
T3 construct: made in house; host or cells: chemical synthesis (bait); crude extract of JM4.5.2 cells with or without TNFα (partners)
Method: 24·10^7 JM4.5.2 cells were stimulated or not with 10 ng/ml of TNFα for 10 minutes at 37° C., washed twice with cold PBS and lysed in 900 μl of lysis buffer containing a protease inhibitor mixture as indicated in Example 1.D. Lysates were clarified at 15 000×g at 4° C. for 30 min. 150 μl of proteins were incubated 2 h at 4° C. with 150 μl of streptavidin magnetic beads (MagPrep®, Novagen) pre-incubated 1 h at 4° C. with 10 μg of biotynilated-CC2-LZ and with or without 20 μM of peptides (BA-NLM or BA-DR NLM). Beads were washed 4 times in buffer A (10 mM Hepes pH 7.5, 150 mM NaCl, 8 mM MgCl2, 10% glycerol, 0.1 mM DDM and 1 mM DTE) and resuspended in 30 μl of laemmli buffer containing 6 M Urea. Samples were analysed by Western blotting using anti-ubiquitin antibodies (Sigma) as well as anti-NDPK-B antibodies for loading controls.
Thus, the Inventors examined whether DR NLM impedes the interaction between NEMO and the K63 polyubiquitin chains. To this end, they developed a pull down assay which uses the a peptide comprising the CC2 and the LZ domains of NEMO as a bait to pull down the polyubiquitinylated proteins as described in Example 1.J and depicted in FIG. 7A. […] After extensive washing of beads, all mono and polyubiquitinylated proteins bound to CC2-LZ were analysed by Western blot using anti-ubiquitin antibody (Sigma).

T1 sequence (O88522 253-336): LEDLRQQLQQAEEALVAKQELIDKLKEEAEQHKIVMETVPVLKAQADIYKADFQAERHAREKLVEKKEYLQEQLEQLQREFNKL
T3 sequence (O88522 253-336): as above

CC[C@H](C)[C@H](NC(=O)[C@H](CC(=O)O)NC(=O)[C@H](C)NC(=O)[C@H](CCC(N)=O)NC(=O)[C@H](C)NC(=O)[C@H](CCCCN)NC(=O)[C@H](CC(C)C)NC(C)=O)C(=O)N[C@@H](Cc1ccc(O)cc1)C(=O)N[C@@H](CCCCN)C(=O)N[C@@H](C)C(=O)N[C@@H](CCCNC(=N)N)C(=O)N[C@@H](Cc1ccccc1)C(=O)N[C@@H](CCC(N)=O)C(=O)N[C@@H](C)C(=O)N[C@@H](CCC(=O)O)C(=O)N[C@@H](CCCNC(=N)N)C(=O)N[C@@H](Cc1c[nH]cn1)C(=O)N[C@@H](C)C(=O)N[C@@H](CCCNC(=N)N)C(=O)N[C@@H](CCC(=O)O)C(=O)N[C@@H](CCCCN)C(N)=O [DR NLM] (Ac-LKAQADIYKARFQAERHAREK-NH2; N-terminus and C-terminus assumed)
Kd [1]: 17 µM | effect on NF-AT pathway [2]: does not abrogate | IC50 [3]: 0.9 µM | cooperativity index (Hill coefficient) n [4]: 1 | Kd ([4]; read-out: dissociation constant for Lys63-linked polyubiquitin chains): 250 µM | effect on ERK and p38 pathways [5]: does not abrogate | effect on AP1 pathway [6]: does not abrogate | inhibition of CC2-LZ interaction with polyubiquitinylated proteins [7]: abolishes the CC2-LZ interaction with the cellular polyubiquitinylated proteins
